From patent US7713714B2, “Isolated nona- and decapeptides which bind to HLA molecules, and the use thereof” (Ludwig Institute for Cancer Research, priority 1997, dated 2010)
Read-outs that look alike come from different tables or passages of the source.

Assays:
[1] = system: TILN LAU 203; assay: 51Cr release assay, TILN recognition of peptide on T2 cells, TILN LAU 203
[2] = system: CTL clone 1.13; assay: 51Cr assay, recognition by Melan-A specific CTL clone 1.13; assay type: cell-based, human; conditions: Table IV; for EC50: read-out: Peptide [nM] 50%; for Relative activity: relative to SEQ ID NO: 2
[3] = system: TILN LAU 132; assay: 51Cr release assay, TILN recognition of peptide on T2 cells, TILN LAU 132
[4] = system: CTL clone M77.80; assay: 51Cr assay, recognition by Melan-A specific CTL clone M77.80; assay type: cell-based, human; conditions: Table IV; for EC50: read-out: Peptide [nM] 50%; for Relative activity: relative to SEQ ID NO: 2
[5] = system: Melan-A specific CTL clone; assay: 51Cr assay, recognition by Melan-A specific CTL clone (third clone, name not given); assay type: cell-based, human; conditions: Table IV; for EC50: read-out: Peptide [nM] 50%; for Relative activity: relative to SEQ ID NO: 2
[6] = system: CTL clone 7.10; assay: 51Cr assay, recognition by Melan-A specific CTL clone 7.10; assay type: cell-based, human; conditions: Table IV; for EC50: read-out: Peptide [nM] 50%; for Relative activity: relative to SEQ ID NO: 2
[7] = molecular target: T1, HLA-A*0201 (Homo sapiens, UniProt P04439, D140Y/D185E/D98H/E176V/E277Q/G131W/G231S/I119V/I121R/I166T/I218V/L300P/L318F/N151K/N90K/P208A/P217A/Q86G/Q94H/R138H/R169H/T345S)
[8] = system: CTL clone M77.86; assay: 51Cr assay, recognition by Melan-A specific CTL clone M77.86; assay type: cell-based, human; conditions: Table IV; for EC50: read-out: Peptide [nM] 50%; for Relative activity: relative to SEQ ID NO: 2
[9] = system: five HLA-A*0201 restricted Melan-A specific CTL clones; assay: Recognition by five HLA-A*0201 restricted Melan-A specific CTL clones, statements; assay type: cell-based, human; conditions: compared with SEQ ID NO: 2
[10] = system: panel of the CTLs; assay: Recognition assay dissecting the CTL panel (Example 10)
[11] = molecular target: T1, HLA-A*0201; conditions: relative to SEQ ID NO: 1
[12] = molecular target: T1, HLA-A*0201; conditions: Table II; relative to SEQ ID NO: 2
[13] = molecular target: T1, HLA-A*0201; remark: listed apart in the source
[14] = molecular target: T1, HLA-A*0201; conditions: fluorescence index, 16 hours, 23° C.
[15] = read-out:, Table III, dose response, T2 cells
[16] = Table III, relative to SEQ ID NO: 2
[17] = Table I, [nM]50% SEQ ID NO: 2 / [nM]50% test peptide
[18] = read-out: Peptide [nM] 50%, Table I, T2 targets, effector:target 30:1, concentration giving 50% of maximum activity

Molecule	EC50 [1, 15]	EC50 [2]	EC50 [3, 15]	EC50 [4]	EC50 [5]	EC50 [6]	stability of peptide/HLA-A*0201 complexes [7]	EC50 [8]	recognition by the five CTL clones, in words [9]	further results
CC[C@H](C)[C@H](NC(=O)CNC(=O)[C@H](CC(C)C)NC(=O)[C@H](C)N)C(=O)NCC(=O)N[C@H](C(=O)N[C@@H](CC(C)C)C(=O)N[C@H](C(=O)N[C@H](C(=O)O)C(C)C)[C@@H](C)O)[C@@H](C)CC [SEQ ID NO: 5]	> 1000 nM	> 10000 nM	> 1000 nM	> 1000 nM	> 1000 nM	> 1000 nM	intermediate stability	90 nM		
CC[C@H](C)[C@H](NC(=O)CNC(=O)[C@H](CCSC)NC(=O)[C@H](C)NC(=O)[C@@H](N)CCC(=O)O)C(=O)NCC(=O)N[C@H](C(=O)N[C@@H](CC(C)C)C(=O)N[C@H](C(=O)N[C@H](C(=O)O)C(C)C)[C@@H](C)O)[C@@H](C)CC [SEQ ID NO: 12]	> 1000 nM	> 10000 nM	> 1000 nM	> 1000 nM	40 nM	> 1000 nM	intermediate stability	550 nM	recognition improved	
CC[C@H](C)[C@H](NC(=O)CNC(=O)[C@H](CC(C)C)NC(=O)[C@H](C)NC(=O)[C@@H](N)CCC(=O)O)C(=O)NCC(=O)N[C@H](C(=O)N[C@@H](CC(C)C)C(=O)N[C@H](C(=O)N[C@H](C(=O)O)C(C)C)[C@@H](C)O)[C@@H](C)CC [SEQ ID NO: 11]	> 1000 nM	20 nM	> 1000 nM	0.5 nM	0.015 nM	0.5 nM	intermediate stability	0.015 nM	reduced recognition for four of five	
CC[C@H](C)[C@H](NC(=O)CNC(=O)[C@H](C)NC(=O)[C@H](C)NC(=O)[C@@H](N)Cc1ccc(O)cc1)C(=O)NCC(=O)N[C@H](C(=O)N[C@@H](CC(C)C)C(=O)N[C@H](C(=O)N[C@H](C(=O)O)C(C)C)[C@@H](C)O)[C@@H](C)CC [SEQ ID NO: 13]	5 nM	> 10000 nM	1 nM	1000 nM	> 1000 nM	35 nM		0.015 nM	reduced recognition by the CTLs	Relative activity [1, 16]: 20; Relative activity [2]: <0.4; recognition by a fifth CTL [10]: recognized; recognition by four of the CTLs [10]: equally well; recognition by two other CTLs [10]: not; Relative activity [3, 16]: 30; Relative activity [4]: 0.3; Relative activity [5]: <0.3; Relative activity [6]: 1.4; Relative activity [8]: 1000
Glu Ala Ala Gly Ile Gly Ile Ala Thr Val [SEQ ID NO: 23]										change in competitor activity, in words [11]: did not result in significant changes in activity
C[C@H](NC(=O)[C@@H](N)CCC(=O)O)C(=O)N[C@@H](CC(=O)O)C(=O)N1CCC[C@H]1C(=O)N[C@H](C(=O)NCC(=O)N[C@@H](Cc1c[nH]cn1)C(=O)N[C@@H](CO)C(=O)N[C@@H](Cc1ccc(O)cc1)C(=O)O)[C@@H](C)O [SEQ ID NO: 21]										Relative competitor activity [12]: <0.6; binding to HLA-A*0201 compared with SEQ ID NO: 2, in words [13]: no binding
Glu Ala Ala Gly Ile Gly Ile Leu Ala Val [SEQ ID NO: 24]										change in competitor activity, in words [11]: did not result in significant changes in activity
CC[C@H](C)[C@H](NC(=O)CNC(=O)[C@H](C)NC(=O)[C@H](C)NC(=O)[C@@H](N)Cc1ccccc1)C(=O)NCC(=O)N[C@H](C(=O)N[C@@H](CC(C)C)C(=O)N[C@H](C(=O)N[C@H](C(=O)O)C(C)C)[C@@H](C)O)[C@@H](C)CC [SEQ ID NO: 14]	1 nM	200 nM	0.05 nM	> 1000 nM	> 1000 nM	7 nM		0.005 nM	reduced recognition by the CTLs	Relative activity [1, 16]: 60; Relative activity [2]: 20; recognition by a fifth CTL [10]: not; recognition by four of the CTLs [10]: equally well; recognition by two other CTLs [10]: recognized; Relative activity [3, 16]: 600; Relative activity [4]: <0.3; Relative activity [5]: <0.3; Relative activity [6]: 7; Relative activity [8]: 3000
ILTVILGVL [SEQ ID NO: 4, reference compound]										Relative activity [1, 17]: <4 × 10^−3; EC50 [1, 18]: > 10000 nM; Relative activity [3, 17]: <1.5 × 10^−3; EC50 [3, 18]: > 10000 nM; relative binding activity, in words [14]: about the same as SEQ ID NO: 2; binding to HLA-A*0201 compared with SEQ ID NO: 2, in words [13]: comparable to SEQ ID NO: 2
CC[C@H](C)[C@H](NC(=O)CNC(=O)[C@H](C)NC(=O)[C@@H](N)CCSC)C(=O)NCC(=O)N[C@H](C(=O)N[C@@H](CC(C)C)C(=O)N[C@H](C(=O)N[C@H](C(=O)O)C(C)C)[C@@H](C)O)[C@@H](C)CC [SEQ ID NO: 8]	8 nM	80 nM	2.5 nM	0.5 nM	200 nM	15 nM	unstable complexes, which decay within one hour	0.6 nM		
Lys Leu Val Val Val Gly Ala Val Gly Val [SEQ ID NO: 20]										lysis percentage ([13]; peptide used alone, CTL clone 7 RAS, T2 cells): 80%
CC[C@H](C)[C@H](NC(=O)CNC(=O)[C@H](CCSC)NC(=O)[C@H](C)N)C(=O)NCC(=O)N[C@H](C(=O)N[C@@H](CC(C)C)C(=O)N[C@H](C(=O)N[C@H](C(=O)O)C(C)C)[C@@H](C)O)[C@@H](C)CC [SEQ ID NO: 6]	> 1000 nM	> 10000 nM	> 1000 nM	> 1000 nM	> 1000 nM	> 1000 nM	intermediate stability	> 1000 nM		
